Experiments:
Design in all cases: scale not given: the % may be the effect or the level left
[1] = target: Misshapen-like kinase 1 (Homo sapiens) (UniProt Q8N4C8); assay: Inhibition of human MINK1 assessed as enzyme activity at 1 uM using myelin basic protein as substrate preincubated for 20 mins followed by [gamma-33P]-ATP addition and measured after 120 mins by radiometric Hot-SpotSM Kinase assay relative to control
[2] = target: T1, Serine/threonine-protein kinase DCLK1 (Homo sapiens) (UniProt O15075); assay: Inhibition of human DCAMKL1 assessed as enzyme activity at 1 uM using KKLNRTLSFAEPG as substrate preincubated for 20 mins followed by [gamma-33P]-ATP addition and measured after 120 mins by radiometric Hot-SpotSM Kinase assay relative to control
T1 sequence (whole entry): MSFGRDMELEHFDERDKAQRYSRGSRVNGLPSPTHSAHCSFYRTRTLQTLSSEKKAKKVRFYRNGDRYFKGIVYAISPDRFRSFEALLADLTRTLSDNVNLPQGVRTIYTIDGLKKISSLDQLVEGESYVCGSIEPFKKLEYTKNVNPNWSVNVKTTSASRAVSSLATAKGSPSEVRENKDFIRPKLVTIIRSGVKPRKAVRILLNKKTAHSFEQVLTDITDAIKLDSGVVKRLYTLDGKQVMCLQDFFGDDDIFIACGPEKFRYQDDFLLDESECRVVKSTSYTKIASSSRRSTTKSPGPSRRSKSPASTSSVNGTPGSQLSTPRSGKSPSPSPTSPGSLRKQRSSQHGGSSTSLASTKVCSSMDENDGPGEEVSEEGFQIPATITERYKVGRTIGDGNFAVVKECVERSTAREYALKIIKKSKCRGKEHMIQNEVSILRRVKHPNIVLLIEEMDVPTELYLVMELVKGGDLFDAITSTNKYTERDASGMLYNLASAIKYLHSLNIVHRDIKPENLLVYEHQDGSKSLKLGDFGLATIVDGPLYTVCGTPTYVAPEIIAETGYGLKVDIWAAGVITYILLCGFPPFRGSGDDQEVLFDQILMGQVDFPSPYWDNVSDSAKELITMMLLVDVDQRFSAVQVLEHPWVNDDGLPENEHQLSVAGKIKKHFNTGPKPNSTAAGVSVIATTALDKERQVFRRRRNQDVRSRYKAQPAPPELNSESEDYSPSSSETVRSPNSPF

[3] = target: Mitogen-activated protein kinase kinase kinase 1 (Homo sapiens) (UniProt Q13233); assay: Inhibition of human MEKK1 assessed as enzyme activity at 1 uM using myelin basic protein as substrate preincubated for 20 mins followed by [gamma-33P]-ATP addition and measured after 120 mins by radiometric Hot-SpotSM Kinase assay relative to control
[4] = target: Citron Rho-interacting kinase (Homo sapiens) (UniProt O14578); assay: Inhibition of human STK21 assessed as enzyme activity at 1 uM using KKRPQRRYSNVF as substrate preincubated for 20 mins followed by [gamma-33P]-ATP addition and measured after 120 mins by radiometric Hot-SpotSM Kinase assay relative to control
Citron Rho-interacting kinase (Homo sapiens), sequence (O14578 whole entry): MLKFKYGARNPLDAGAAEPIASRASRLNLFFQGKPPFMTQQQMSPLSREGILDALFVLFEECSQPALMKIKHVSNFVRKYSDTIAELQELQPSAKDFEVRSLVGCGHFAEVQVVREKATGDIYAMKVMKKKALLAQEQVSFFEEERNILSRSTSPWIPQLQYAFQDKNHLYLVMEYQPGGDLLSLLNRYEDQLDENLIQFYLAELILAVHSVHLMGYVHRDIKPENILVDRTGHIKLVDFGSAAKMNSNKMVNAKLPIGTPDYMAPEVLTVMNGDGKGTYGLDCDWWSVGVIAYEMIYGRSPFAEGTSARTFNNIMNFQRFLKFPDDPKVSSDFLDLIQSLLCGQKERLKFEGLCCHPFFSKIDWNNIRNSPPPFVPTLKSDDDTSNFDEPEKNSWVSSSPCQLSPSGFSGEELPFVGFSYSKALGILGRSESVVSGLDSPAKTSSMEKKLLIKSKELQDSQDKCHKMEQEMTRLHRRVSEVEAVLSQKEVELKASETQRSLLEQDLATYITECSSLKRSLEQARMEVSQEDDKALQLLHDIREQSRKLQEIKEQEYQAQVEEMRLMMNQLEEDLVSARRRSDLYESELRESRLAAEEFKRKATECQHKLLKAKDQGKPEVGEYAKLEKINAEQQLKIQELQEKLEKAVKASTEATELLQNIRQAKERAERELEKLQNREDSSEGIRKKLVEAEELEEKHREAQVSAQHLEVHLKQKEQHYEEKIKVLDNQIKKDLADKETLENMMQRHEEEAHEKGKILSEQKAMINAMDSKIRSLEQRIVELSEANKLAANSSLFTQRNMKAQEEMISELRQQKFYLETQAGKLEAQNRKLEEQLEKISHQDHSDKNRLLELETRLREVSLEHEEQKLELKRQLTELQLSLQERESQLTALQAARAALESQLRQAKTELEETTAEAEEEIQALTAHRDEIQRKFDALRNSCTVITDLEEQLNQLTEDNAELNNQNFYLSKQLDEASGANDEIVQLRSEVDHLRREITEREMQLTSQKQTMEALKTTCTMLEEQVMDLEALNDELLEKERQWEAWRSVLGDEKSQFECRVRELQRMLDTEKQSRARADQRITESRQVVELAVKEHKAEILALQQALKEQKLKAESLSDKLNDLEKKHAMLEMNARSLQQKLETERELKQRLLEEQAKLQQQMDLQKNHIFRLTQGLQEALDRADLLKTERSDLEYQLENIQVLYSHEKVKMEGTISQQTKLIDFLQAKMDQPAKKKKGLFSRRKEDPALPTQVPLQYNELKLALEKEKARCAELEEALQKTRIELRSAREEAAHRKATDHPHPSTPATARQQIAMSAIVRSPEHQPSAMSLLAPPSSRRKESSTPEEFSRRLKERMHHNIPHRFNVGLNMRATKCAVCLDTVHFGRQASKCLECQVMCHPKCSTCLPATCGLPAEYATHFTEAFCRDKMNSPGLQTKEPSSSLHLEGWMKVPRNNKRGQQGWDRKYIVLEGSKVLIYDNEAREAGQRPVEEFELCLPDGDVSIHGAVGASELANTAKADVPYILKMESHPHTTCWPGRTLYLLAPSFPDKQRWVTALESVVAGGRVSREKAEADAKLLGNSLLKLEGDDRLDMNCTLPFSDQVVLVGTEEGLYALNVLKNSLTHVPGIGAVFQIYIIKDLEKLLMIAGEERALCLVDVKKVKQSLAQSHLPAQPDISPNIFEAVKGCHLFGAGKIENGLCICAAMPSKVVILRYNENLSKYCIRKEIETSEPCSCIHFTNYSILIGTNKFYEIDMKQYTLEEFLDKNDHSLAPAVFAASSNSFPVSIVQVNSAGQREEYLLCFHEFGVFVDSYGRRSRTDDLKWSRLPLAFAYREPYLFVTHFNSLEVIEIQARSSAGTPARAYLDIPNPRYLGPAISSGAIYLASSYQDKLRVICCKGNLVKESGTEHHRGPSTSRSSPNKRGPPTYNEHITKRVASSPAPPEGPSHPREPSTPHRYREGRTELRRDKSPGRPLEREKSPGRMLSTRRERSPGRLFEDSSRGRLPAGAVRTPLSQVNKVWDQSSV

[5] = target: Dual specificity protein kinase CLK2 (Homo sapiens) (UniProt P49760); assay: Inhibition of human CLK2 assessed as enzyme activity at 1 uM using myelin basic protein as substrate preincubated for 20 mins followed by [gamma-33P]-ATP addition and measured after 120 mins by radiometric Hot-SpotSM Kinase assay relative to control
Dual specificity protein kinase CLK2 (Homo sapiens), sequence (P49760 whole entry, looked up): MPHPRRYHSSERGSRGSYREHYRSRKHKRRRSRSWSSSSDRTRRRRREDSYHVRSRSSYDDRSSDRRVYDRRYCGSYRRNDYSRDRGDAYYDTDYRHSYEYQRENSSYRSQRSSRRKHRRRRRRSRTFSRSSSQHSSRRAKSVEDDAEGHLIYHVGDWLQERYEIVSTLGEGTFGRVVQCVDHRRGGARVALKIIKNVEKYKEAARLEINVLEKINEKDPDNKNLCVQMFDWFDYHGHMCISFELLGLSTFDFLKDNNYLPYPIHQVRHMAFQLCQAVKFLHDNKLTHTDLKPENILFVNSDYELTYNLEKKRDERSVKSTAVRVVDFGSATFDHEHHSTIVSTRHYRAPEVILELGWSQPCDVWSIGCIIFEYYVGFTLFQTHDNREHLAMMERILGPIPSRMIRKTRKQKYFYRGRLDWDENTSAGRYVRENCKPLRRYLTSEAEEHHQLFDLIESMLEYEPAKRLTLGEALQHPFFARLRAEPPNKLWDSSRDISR

[6] = target: Dual specificity tyrosine-phosphorylation-regulated kinase 1A (Homo sapiens) (UniProt Q13627); assay: Inhibition of human DYRK1/DYRK1A assessed as enzyme activity at 1 uM using RRRFRPASPLRGPPK as substrate preincubated for 20 mins followed by [gamma-33P]-ATP addition and measured after 120 mins by radiometric Hot-SpotSM Kinase assay relative to control
[7] = target: T2, Protein kinase C zeta type (Homo sapiens) (UniProt Q05513); assay: Inhibition of human PKCzeta assessed as enzyme activity at 1 uM using ERMRPRKRQGSVRRRV as substrate preincubated for 20 mins followed by [gamma-33P]-ATP addition and measured after 120 mins by radiometric Hot-SpotSM Kinase assay relative to control
T2 sequence (whole entry): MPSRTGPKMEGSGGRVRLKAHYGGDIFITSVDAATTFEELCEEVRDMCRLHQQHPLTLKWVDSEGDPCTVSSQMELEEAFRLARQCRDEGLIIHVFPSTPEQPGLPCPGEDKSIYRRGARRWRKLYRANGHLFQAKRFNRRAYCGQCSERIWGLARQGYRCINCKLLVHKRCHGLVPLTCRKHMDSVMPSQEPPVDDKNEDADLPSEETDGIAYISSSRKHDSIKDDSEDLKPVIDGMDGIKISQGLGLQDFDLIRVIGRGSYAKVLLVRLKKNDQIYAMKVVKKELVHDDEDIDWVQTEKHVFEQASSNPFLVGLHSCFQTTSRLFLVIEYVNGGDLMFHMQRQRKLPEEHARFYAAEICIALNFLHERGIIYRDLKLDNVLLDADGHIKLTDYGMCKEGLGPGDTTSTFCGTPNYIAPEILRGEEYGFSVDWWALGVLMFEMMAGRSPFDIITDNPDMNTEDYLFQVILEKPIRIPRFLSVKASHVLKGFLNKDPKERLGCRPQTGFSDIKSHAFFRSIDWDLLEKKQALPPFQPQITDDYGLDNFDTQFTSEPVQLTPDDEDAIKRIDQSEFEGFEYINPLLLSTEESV

[8] = target: Serine/threonine-protein kinase SIK1 (Homo sapiens) (UniProt P57059); assay: Inhibition of human SIK1 assessed as enzyme activity at 1 uM using AMARAASAAALARRR as substrate preincubated for 20 mins followed by [gamma-33P]-ATP addition and measured after 120 mins by radiometric Hot-SpotSM Kinase assay relative to control
[9] = target: Calcium/calmodulin-dependent protein kinase type 1B (Homo sapiens) (UniProt Q6P2M8); assay: Inhibition of human CAMK1b assessed as enzyme activity at 1 uM using KKALRRQETVDAL as substrate preincubated for 20 mins followed by [gamma-33P]-ATP addition and measured after 120 mins by radiometric Hot-SpotSM Kinase assay relative to control
Calcium/calmodulin-dependent protein kinase type 1B (Homo sapiens), sequence (Q6P2M8 whole entry): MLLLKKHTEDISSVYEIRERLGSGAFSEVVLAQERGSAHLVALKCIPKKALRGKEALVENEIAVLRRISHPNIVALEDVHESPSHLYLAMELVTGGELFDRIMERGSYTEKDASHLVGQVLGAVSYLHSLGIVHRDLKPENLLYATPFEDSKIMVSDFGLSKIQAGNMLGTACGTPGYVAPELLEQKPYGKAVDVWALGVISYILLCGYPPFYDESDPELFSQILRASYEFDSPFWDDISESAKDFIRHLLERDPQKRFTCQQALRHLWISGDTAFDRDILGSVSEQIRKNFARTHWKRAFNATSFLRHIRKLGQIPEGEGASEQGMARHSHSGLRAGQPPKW

[10] = target: Tyrosine-protein kinase BTK (Homo sapiens) (UniProt Q06187); assay: Inhibition of human BTK assessed as enzyme activity at 1 uM using poly[Glu:Tyr] (4:1) as substrate preincubated for 20 mins followed by [gamma-33P]-ATP addition and measured after 120 mins by radiometric Hot-SpotSM Kinase assay relative to control
[11] = target: BDNF/NT-3 growth factors receptor (Homo sapiens) (UniProt Q16620); assay: Inhibition of human TRKB assessed as enzyme activity at 1 uM using poly[Glu:Tyr] (4:1) as substrate preincubated for 20 mins followed by [gamma-33P]-ATP addition and measured after 120 mins by radiometric Hot-SpotSM Kinase assay relative to control
BDNF/NT-3 growth factors receptor (Homo sapiens), sequence (Q16620 32-822 limits assumed): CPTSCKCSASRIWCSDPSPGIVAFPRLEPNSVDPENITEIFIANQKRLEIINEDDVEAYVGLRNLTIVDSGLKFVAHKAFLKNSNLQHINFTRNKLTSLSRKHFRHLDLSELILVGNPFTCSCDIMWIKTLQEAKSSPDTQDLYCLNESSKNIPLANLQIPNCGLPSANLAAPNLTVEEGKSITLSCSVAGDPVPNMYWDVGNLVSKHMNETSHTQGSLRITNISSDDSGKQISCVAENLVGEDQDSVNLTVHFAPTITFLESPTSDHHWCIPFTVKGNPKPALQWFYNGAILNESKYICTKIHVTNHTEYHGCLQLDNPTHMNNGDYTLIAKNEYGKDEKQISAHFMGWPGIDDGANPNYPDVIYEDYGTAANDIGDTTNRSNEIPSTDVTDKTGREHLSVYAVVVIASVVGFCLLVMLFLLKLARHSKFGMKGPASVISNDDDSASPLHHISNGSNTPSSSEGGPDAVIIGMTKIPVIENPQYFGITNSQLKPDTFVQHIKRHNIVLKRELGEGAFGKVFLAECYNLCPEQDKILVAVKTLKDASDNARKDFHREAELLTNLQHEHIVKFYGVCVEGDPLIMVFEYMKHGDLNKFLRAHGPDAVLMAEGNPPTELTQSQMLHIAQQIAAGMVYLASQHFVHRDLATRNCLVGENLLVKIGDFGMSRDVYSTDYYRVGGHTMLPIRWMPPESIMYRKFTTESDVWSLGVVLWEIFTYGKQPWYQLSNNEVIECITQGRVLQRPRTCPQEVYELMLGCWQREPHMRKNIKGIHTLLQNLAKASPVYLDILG

Misshapen-like kinase 1 (Homo sapiens), sequence (Q8N4C8 whole entry, looked up): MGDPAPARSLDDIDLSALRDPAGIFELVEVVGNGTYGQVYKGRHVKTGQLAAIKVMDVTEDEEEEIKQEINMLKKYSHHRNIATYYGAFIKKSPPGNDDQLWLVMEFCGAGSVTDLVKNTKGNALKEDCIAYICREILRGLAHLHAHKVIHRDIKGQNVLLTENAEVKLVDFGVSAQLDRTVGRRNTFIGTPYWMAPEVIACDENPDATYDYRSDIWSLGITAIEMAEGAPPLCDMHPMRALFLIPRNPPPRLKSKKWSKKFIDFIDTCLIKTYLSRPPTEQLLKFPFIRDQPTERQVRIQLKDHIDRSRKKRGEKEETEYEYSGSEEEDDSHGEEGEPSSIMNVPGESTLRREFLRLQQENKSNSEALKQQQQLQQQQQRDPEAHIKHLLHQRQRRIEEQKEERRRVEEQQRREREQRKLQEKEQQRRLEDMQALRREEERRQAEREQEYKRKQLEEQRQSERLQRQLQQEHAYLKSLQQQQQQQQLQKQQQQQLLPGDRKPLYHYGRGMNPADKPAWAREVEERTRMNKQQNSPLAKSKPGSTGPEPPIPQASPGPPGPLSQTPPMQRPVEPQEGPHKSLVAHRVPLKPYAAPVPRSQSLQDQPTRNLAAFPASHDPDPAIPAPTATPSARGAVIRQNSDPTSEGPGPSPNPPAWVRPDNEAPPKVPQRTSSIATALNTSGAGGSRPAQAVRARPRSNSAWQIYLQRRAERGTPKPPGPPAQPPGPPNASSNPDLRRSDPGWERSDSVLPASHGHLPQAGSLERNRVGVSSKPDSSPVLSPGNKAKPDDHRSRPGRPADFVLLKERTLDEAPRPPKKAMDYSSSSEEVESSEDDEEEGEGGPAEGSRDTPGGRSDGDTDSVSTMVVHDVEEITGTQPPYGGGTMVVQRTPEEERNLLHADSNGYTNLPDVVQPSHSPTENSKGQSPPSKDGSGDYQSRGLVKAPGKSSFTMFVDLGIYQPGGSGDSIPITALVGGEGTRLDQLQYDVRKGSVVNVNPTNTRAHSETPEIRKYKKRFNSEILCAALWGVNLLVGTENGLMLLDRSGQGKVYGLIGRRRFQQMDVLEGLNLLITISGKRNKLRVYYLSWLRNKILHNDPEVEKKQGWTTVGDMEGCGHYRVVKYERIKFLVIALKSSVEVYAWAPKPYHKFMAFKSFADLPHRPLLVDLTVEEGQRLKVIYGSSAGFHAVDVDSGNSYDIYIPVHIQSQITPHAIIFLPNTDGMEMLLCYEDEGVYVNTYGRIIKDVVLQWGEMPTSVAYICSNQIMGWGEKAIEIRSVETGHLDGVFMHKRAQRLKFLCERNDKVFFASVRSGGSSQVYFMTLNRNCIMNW

| Structure (SMILES) | Activity [1] | Activity [2] | Activity [3] | Activity [4] | Activity [5] | Activity [6] | Activity [7] | Activity [8] | Activity [9] | Activity [10] | Activity [11] |
| --- | --- | --- | --- | --- | --- | --- | --- | --- | --- | --- | --- |
| CC[C@H](Nc1ncnc2[nH]cnc12)c1nc2cccc(F)c2c(=O)n1-c1ccccc1 | 95.2% | 89.3% | 101% | 101% | 96.9% | 87.8% | 91.5% | 95.5% | 103% | 97.3% | 94.1% |
| C[C@H](Nc1ncnc2nc[nH]c12)c1cc2cccc(Cl)c2c(=O)n1-c1ccccc1 | 97% | 89.4% | 107% | 93.5% | 95.3% | 89% | 89.9% | 95.7% | 102% | 98.7% | 95.8% |
| CC(C)Oc1ccc(-c2nn([C@@H](C)c3oc4ccc(F)cc4c(=O)c3-c3cccc(F)c3)c3ncnc(N)c23)cc1F [UMBRALISIB] | 96.4% | 88.3% | 101% | 113% | 99.5% | 87% | 93.6% | 98.2% | 100% | 96.8% | 96% |
